Experimental data from patent publication US5221669A, “Antiviral compositions containing α-cyclodextrin sulfates alone and in combination with other known antiviral agents and glucocorticoids and methods of treating viral infections” (The United States of America as represented by the …, priority 1991, dated 1993).
Values joined by “and” are separate entries in the source; they are usually repeats but may differ in a detail not shown here. Identical values can stand only once. Like-named read-outs stand apart in the source and are kept apart here.

Key:
[1] = tested on: HIV-1; assay: HIV-1 replication in PHA-stimulated PMNC cultures, RT method on culture supernatants; settings: for Virus-enhancement effect: low drug concentrations; for Increase in virus production: concentrations of 1.0 μg ml^-1 or less
Method: Phytohaemagglutinin stimulated human peripheral blood mononuclear cells (PHA-PMNCs) were exposed to A-CDS and PPS and infected with HIV-1 as follows. PMNCs stimulated with 10.0 μg ml^-1 of PHA were further propagated in Medium B (RPMI-1640 medium with 10% fetal calf serum, 10% T-cell growth factor, and 1:500 goat antibody to human Interferon) at 10^8 cells ml^-1 in 20 ml and were exposed to different concentrations of drugs and simultaneously infected with 10000 c.p.m. ml^-1 of HIV-1 in 20 ml/culture flask. Cultures were tested for the quantity of cell-free virus in the culture supernatants using the RT method. RT activity in the disrupted virions was tested by using exogenous template poly (rA).(dT)12-18 as described (Anand et al., (1988), supra. The reaction mixture consisted of 50mM Tris-hydrochloride (pH 7.5), 5mM dithiothreitol 100mM KCI, 10mM MgClhd 2, 10 μM [^3 H]-TTP, Triton X-100 containing poly (rA).(dT)12-18 at 30 μg ml^-1 (mcg ml^-1). The reaction mixture was incubated at 37° C. for 2 hours, and [^3 H]-TTP incorporated into polymers was precipitated with 10% trichloroacetic acid, collected on a glass fibre filter, and counted in an LKB 1219 Rackbeta scintillation counter. Various cultures in the experiment are represented: .quadrature.-.quadrature., A-CDS; .smallcircle.-.smallcircle., PPS; .smallcircle.-.smallcircle., B-CDS. The values are means of two determinations tested in two separate experiments. The range of variation was no greater than 15%.
After two days, PMNCs were infected and studied for the change in virus replication in the presence of drugs and for the direct effect of drugs on cell multiplication.
PMNCs stimulated with PHA were further propagated in Medium B(RPMI-1640 with 10% fetal calf serum. 10% T-cell growth factor and 1:500 diluted goat antibody to human interferon). […] In general, four hours after injection and drug treatment, cultures were centrifuged to remove the extracellular virus and the cells were resuspended in fresh Medium B and replenished with appropriate drug concentrations. The percent change in virus replication was calculated as (x-c)/c×100, where x represented the experimental value and c represented the control value.
Reduction in RT activity was a reflection of the inhibition of virus production and therefore virus replication. The virus was prepared from the drug-treated and untreated culture supernatants.
Cultures were infected with virus and treated with the drugs simultaneously and were tested to evaluate the amount of virus production by the reverse transcriptase (RT) method.

[2] = tested on: PMNCs; settings: for % <Decrease (viable cells): decrease vs control; for Viable cells: controls 118 and 106; for % >Increase (viable cells): increase vs control
Method: Uninfected PMNCs, drug-treated PMNCs, and drug-treated and virus-infected PMNCs in different experiments were tested for drug toxicity and for the alterations in the numbers of viable cells in response to drug treatment by trypan blue exclusion method.
To understand the mechanism of virus enhancement and to evaluate the toxicity of the sulphated sugars to PMNCs in culture, cell viability counts were performed on trypan blue-stained cells.

[3] = tested on: PMNCs; assay: Cell proliferation (cell count) with hydrocortisone phosphate and α-cyclodextrin sulfate; type: cell-based, human
Excerpt: Anti-HIV Effects of Sulphated Sugars in Presence of Glucocorticoids. HIV infections are at some later stages invariably complicated by pathologies which involve neovascularization, particularly those associated with Kaposi's sarcoma. Previously, Folkman et al., Science 243, 1490-1493, 1989, observed that B-CDS stimulates this particular pathology, but that this side-effect can be suppressed by glucocorticoids. […] Thus, pathological neovascularization can be avoided without comprising the anti-HIV effects.

[4] = target: T1, reverse transcriptase enzyme of detergent-disrupted LAV-1BRU isolate (Human immunodeficiency virus type 1 (BRU ISOLATE), UniProt P03367); assay: Direct effect on reverse transcriptase enzyme activity of detergent-disrupted virus; type: biochemical; settings: for Inhibition of RT enzyme activity: concentrations tested up to 25.0 μg ml^-1; for RT activity: control 180; for % >Increase (RT activity): increase vs control; for % <Decrease (RT activity): decrease vs control
T1 construct: poly(rA).oligo(dT) template
Excerpt: Microb. Agents Chemother. 32:684-688 (1988).
The direct effect of A-CDS, B-CDS and PPS on the reverse transcriptase enzyme activity by treating a detergent-disrupted LAV-1BRU isolate with these drugs and subjecting it to the RT method was examined.

[5] = tested on: HIV-1 p24 antigen; assay: p24 antigen ELISA in supernatant-free lysed cells; type: cell-based; settings: supernatant-free lysed cells after exposure
Excerpt: Intracellular changes in the amount of HIV-1 following exposure to PPS were studied by measuring p24 antigen in the supernatant-free lysed cells.

[6] = hydrocortisone phosphate 5 μg/ml alone
[7] = α-cyclodextrin sulfate 2.5 μg/ml alone
[8] = α-cyclodextrin sulfate 5.0 μg/ml alone
[9] = α-cyclodextrin sulfate 10.0 μg/ml alone

Question: How did the “Replication (fold decrease)” value ([1]; AZT 10 nM alone) turn out when `Cc1cn([C@H]2C[C@H](N=[N+]=[N-])[C@@H](CO)O2)c(=O)[nH]c1=O` [AZT, 3'-azido-2',3'-dideoxythy-midine] was run?
Answer: The value was 1.2 fold decrease.

Question: And the RT activity ([1]; AZT 10 nM alone, control 164)?
Answer: Its RT activity is 134 c.p.m. × 10^3 ml^-1.

Question: And the “% <Decrease (viable cells)” value ([2]; 10nM)?
Answer: Its value is 35%.

Question: What about the Viable cells [2] of the same compound?
Answer: Its Viable cells is 72 10^4 ml^-1.

Question: `C[C@]12CCC(=O)C=C1CC[C@@H]1[C@@H]2[C@@H](O)C[C@@]2(C)[C@H]1CC[C@]2(O)C(=O)COP(=O)(O)O` [hydrocortisone phosphate] was tested. Which “Cell Count in million per mL” value [3, 6] did it give?
Answer: Its value is 1.2 million per mL and 1.0 million per mL.

Question: What about the “Inhibition of HIV-1 reverse transcriptase activity (%)” value (from here on “Inhibition … (%)”) [1, 6] of the same compound?
Answer: Its value is 39% and 20%.

Question: For .varies.-cyclodextrin sulphate [A-CDS], which “Cell Count in million per mL” value [3, 7] is on record?
Answer: Its value is 1.2 million per mL.

Question: And the “Cell Count in million per mL” value [3, 8]?
Answer: Its value is 1.3 million per mL.

Question: And the “Cell Count in million per mL” value [3, 9]?
Answer: Its value is 1.5 million per mL.

Question: And the “Inhibition of HIV-1 replication in PMNC cultures” value (“Inhibition of HIV-1 replication” below) [1]?
Answer: Its value is “potent inhibitors”.

Question: What about the “Replication (fold decrease)” value ([1]; A-CDS 0.5 μg ml^-1 alone) of the same compound?
Answer: Its value is 2.8 fold decrease.

Question: What about the RT activity ([1]; A-CDS 0.5 μg ml^-1 alone, control 164) of the same compound?
Answer: The RT activity was 57 c.p.m. × 10^3 ml^-1.

Question: And the “Replication (fold decrease)” value ([1]; A-CDS 1.5 μg ml^-1 alone)?
Answer: The value was 4.9 fold decrease.

Question: What about the RT activity ([1]; A-CDS 1.5 μg ml^-1 alone, control 164) of the same compound?
Answer: Its RT activity is 33 c.p.m. × 10^3 ml^-1.

Question: And the “Relative anti-HIV potency from the dose-response relationship” value ([1]; PMNC cultures, infected and treated simultaneously)?
Answer: The value was “more potent in anti-HIV action than PPS, B-CDS and DS”.

Question: What about the “Virus-enhancement effect” value [1] of the same compound?
Answer: Its value is “lacks the virus-enhancement effect”.

Question: What about the “Inhibition … (%)” value ([1]; α-cyclodextrin sulfate 0.5 μg/ml alone) of the same compound?
Answer: The value was 77%.

Question: What about the “Inhibition … (%)” value ([1]; α-cyclodextrin sulfate 1.0 μg/ml alone) of the same compound?
Answer: The value was 72%.

Question: What about the “Inhibition … (%)” value [1, 7] of the same compound?
Answer: Its value is 80%.

Question: And the “Inhibition … (%)” value [1, 8]?
Answer: Its value is 83%.

Question: What about the “Inhibition … (%)” value [1, 9] of the same compound?
Answer: The value was 91%.

Question: And the “Inhibition of RT enzyme activity” value [4]?
Answer: The value was “No inhibition”.

Question: What about the Viable cells ([2]; conc. 0.1 μg ml^-1) of the same compound?
Answer: The Viable cells was 140 10^4 ml^-1.

Question: And the “% >Increase (viable cells)” value ([2]; conc. 0.1 μg ml^-1)?
Answer: The value was 25%.

Question: And the Viable cells ([2]; conc. 0.5 μg ml^-1)?
Answer: Its Viable cells is 128 10^4 ml^-1.

Question: What about the “% >Increase (viable cells)” value ([2]; conc. 0.5 μg ml^-1) of the same compound?
Answer: Its value is 14%.

Question: How did the “Inhibition of HIV-1 replication” value [1] turn out when Pentosan polysulfate [PPS] was run?
Answer: The value was “potent inhibitors”.

Question: And the “Replication <% decrease” value ([1]; PPS 2.0 μg ml^-1 alone)?
Answer: The value was 77.0%.

Question: And the RT activity ([1]; PPS 2.0 μg ml^-1 alone, control 187)?
Answer: Its RT activity is 43 c.p.m. × 10^3 ml^-1.

Question: What about the “Increase in virus production” value [1] of the same compound?
Answer: The value was “up to a three-fold increase in virus production”.

Question: And the “Virus-enhancement effect” value [1]?
Answer: The value was “virus-enhancement effect”.

Question: What about the “HIV-specific p24 in the cells” value [5] of the same compound?
Answer: Its value is “decrease in HIV-specific p24 in the cells”.

Question: What about the “Enhancement of the RT reaction” value ([4]; 0.1 and 0.5 μg ml^-1) of the same compound?
Answer: The value was “enhancement of the reaction”.

Question: What about the RT activity ([4]; drug conc. 0.1 μg ml^-1) of the same compound?
Answer: Its RT activity is 194 c.p.m. × 10^3 ml^-1.

Question: And the “% >Increase (RT activity)” value ([4]; drug conc. 0.1 μg ml^-1)?
Answer: The value was 7.7%.

Question: What about the RT activity ([4]; drug conc. 0.5 μg ml^-1) of the same compound?
Answer: Its RT activity is 219 c.p.m. × 10^3 ml^-1.

Question: What about the “% >Increase (RT activity)” value ([4]; drug conc. 0.5 μg ml^-1) of the same compound?
Answer: Its value is 21.6%.

Question: What about the RT activity ([4]; drug conc. 2.0 μg ml^-1) of the same compound?
Answer: The RT activity was 163 c.p.m. × 10^3 ml^-1.

Question: What about the “% <Decrease (RT activity)” value ([4]; drug conc. 2.0 μg ml^-1) of the same compound?
Answer: Its value is 9.4%.

Question: What about the RT activity ([4]; drug conc. 4.0 μg ml^-1) of the same compound?
Answer: Its RT activity is 22 c.p.m. × 10^3 ml^-1.

Question: What about the “% <Decrease (RT activity)” value ([4]; drug conc. 4.0 μg ml^-1, 120 min) of the same compound?
Answer: Its value is 87% and 87.7%.

Question: And the RT activity ([4]; drug conc. 5.0 μg ml^-1)?
Answer: Its RT activity is 17 c.p.m. × 10^3 ml^-1.

Question: And the RT activity ([4]; drug conc. 6.0 μg ml^-1)?
Answer: The RT activity was 17 c.p.m. × 10^3 ml^-1.

Question: And the “% <Decrease (RT activity)” value ([4]; drug conc. 6.0 μg ml^-1, 120 min)?
Answer: Its value is 90.5%.

Question: What about the RT activity ([4]; drug conc. 8.0 μg ml^-1) of the same compound?
Answer: The RT activity was 9 c.p.m. × 10^3 ml^-1.

Question: And the “% <Decrease (RT activity)” value ([4]; drug conc. 8.0 μg ml^-1, 120 min)?
Answer: The value was 95.0%.

Question: What about the RT activity ([4]; drug conc. 10.0 μg ml^-1) of the same compound?
Answer: The RT activity was 7 c.p.m. × 10^3 ml^-1.

Question: What about the “% <Decrease (RT activity)” value ([4]; drug conc. 10.0 μg ml^-1, 120 min) of the same compound?
Answer: Its value is 97.7%.

Question: What about the RT activity ([4]; drug conc. 15.0 μg ml^-1) of the same compound?
Answer: Its RT activity is 4 c.p.m. × 10^3 ml^-1.

Question: And the “% <Decrease (RT activity)” value ([4]; drug conc. 15.0 μg ml^-1, 120 min)?
Answer: The value was 97.7%.

Question: What about the RT activity ([4]; drug conc. 20.0 μg ml^-1) of the same compound?
Answer: Its RT activity is 2 c.p.m. × 10^3 ml^-1.

Question: What about the “% <Decrease (RT activity)” value ([4]; drug conc. 20.0 μg ml^-1, 120 min) of the same compound?
Answer: Its value is 99.8%.

Question: What about the RT activity ([4]; drug conc. 25.0 μg ml^-1) of the same compound?
Answer: The RT activity was 1 c.p.m. × 10^3 ml^-1.

Question: And the “% <Decrease (RT activity)” value ([4]; drug conc. 25.0 μg ml^-1, 120 min)?
Answer: The value was 99.4%.

Question: What about the Viable cells ([2]; conc. 0.1 μg ml^-1) of the same compound?
Answer: The Viable cells was 268 10^4 ml^-1.

Question: And the “% >Increase (viable cells)” value ([2]; conc. 0.1 μg ml^-1)?
Answer: The value was 141%.

Question: And the Viable cells ([2]; conc. 0.5 μg ml^-1)?
Answer: The Viable cells was 202 10^4 ml^-1.

Question: And the “% <Decrease (viable cells)” value ([2]; conc. 0.5 μg ml^-1)?
Answer: The value was 80%.

Question: What about the “Lymphoproliferative effect, increase in cell numbers relative to control cultures” value ([2]; particularly at low drug concentrations) of the same compound?
Answer: Its value is “more lymphoproliferative activity than B-CDS and A-CDS”.

Question: What about the “Protective effect on infected cells from HIV-associated cytopathic effect” value ([2]; virus-infected PMNCs, relative to virus-infected drug-free cultures) of the same compound?
Answer: The value was “more than A-CDS and B-CDS”.

Question: Which “Virus-enhancement effect” value [1] does the source give for dextran sulphate [DS] here?
Answer: Its value is “virus-enhancement effect”.

Question: What about the Viable cells ([2]; conc. 0.1 μg ml^-1) of the same compound?
Answer: Its Viable cells is 170 10^4 ml^-1.

Question: What about the “% <Decrease (viable cells)” value ([2]; conc. 0.1 μg ml^-1) of the same compound?
Answer: Its value is 51%.

Question: What about the Viable cells ([2]; conc. 0.5 μg ml^-1) of the same compound?
Answer: Its Viable cells is 90 10^4 ml^-1.

Question: And the “% >Increase (viable cells)” value ([2]; conc. 0.5 μg ml^-1)?
Answer: The value was 19%.

Question: For β-cyclodextrin sulphate [B-CDS], which “Inhibition of HIV-1 replication” value [1] is on record?
Answer: The value was “potent inhibitors”.

Question: What about the “Replication <% decrease” value ([1]; B-CDS 2.5 μg ml^-1 alone) of the same compound?
Answer: The value was 40.1%.

Question: What about the RT activity ([1]; B-CDS 2.5 μg ml^-1 alone, control 187) of the same compound?
Answer: Its RT activity is 112 c.p.m. × 10^3 ml^-1.

Question: What about the “Increase in virus production” value [1] of the same compound?
Answer: Its value is “up to a three-fold increase in virus production”.

Question: And the “Virus-enhancement effect” value [1]?
Answer: Its value is “virus-enhancement effect”.

Question: And the “Inhibition of RT enzyme activity” value [4]?
Answer: The value was “No inhibition”.

Question: And the Viable cells ([2]; conc. 0.1 μg ml^-1)?
Answer: The Viable cells was 188 10^4 ml^-1.

Question: And the “% >Increase (viable cells)” value ([2]; conc. 0.1 μg ml^-1)?
Answer: The value was 67%.

Question: And the Viable cells ([2]; conc. 0.5 μg ml^-1)?
Answer: The Viable cells was 140 10^4 ml^-1.

Question: What about the “% >Increase (viable cells)” value ([2]; conc. 0.5 μg ml^-1) of the same compound?
Answer: The value was 25%.
